This is an account of results in patent US9340549B2, “Oxazolidinone compounds and derivatives thereof” (priority 2012, dated 2016).

Like-named read-outs stand apart in the source and are kept apart here.

One assay concerns Axin2 in SW480 cells. Kind of assay: cells. It counts as cell-based. The note with it: Homo sapiens, SW480, 24 h, read-out: Axin2 384 IF EC50 IP. On the procedure: Using a VPrep, 10 μL of compound/controls was transferred from the compound plate to 60 μL in the cell plate (final 0.5% DMSO, 70 μL). The mixture was incubated for 24 hours at 37° C. at 5% CO2.
The extra media was tapped out. 50 μL of 4% paraformaldehyde (Fisher, AA433689M), 0.1% Triton (Sigma, X100-100 ML) in PBS were added, and the mixture was incubated for 15 minutes at room temperature. […] The extra media was tapped out and to this was added 50 μL of buffer containing Axin2 Antibody (Sigma, SAB1100677-200 µL) at 1:10000 in PBS, 0.1% Tween-20, 1% Normal Goat Serum. The mixture was incubated for 2 hours at room temperature or overnight at 4° C. The cells were then washed twice with PBS, 0.1% Tween-20, and 1% Normal Goat Serum. […] The mixture was then incubated for 30 minutes at room temperature. The cells were then washed twice with PBS, 0.1% Tween-20, and 1% Normal Goat Serum. 50-100 μL PBS was added, and the mixture was covered with a plate seal (Fisher, NC9425162). An ArrayScan (a variation of the compartmental analysis protocol was optimized) was used to scan the plates, and data was analyzed using MEAN_RingSpotAvgIntenCh2). The Axin2 accumulation POC was calculated, and the EC50 was determined using Genedata Screener software to report Axin2 activity.

Assay [1] relates to total β-catenin in SW480 colorectal cells. The assay is described as follows: cells. It counts as cell-based. The procedure:
Total β-Catenin MSD 96-Well Plate Assay for SW480 Cells
SW480 colorectal cells were seeded at a density of 10,000/well in CellBIND 96-well plates (Corning catalog no. 3300) in 60 μL of normal growth medium (MEM alpha supplemented with 10% heat inactivated FBS, GlutaMAX, pyruvate, and 10 mM HEPES).
A 10-point, 3-fold dilution series for each TNKS inhibitor was constructed in a 96-well “stock” plate. […] The plates were incubated at 37° C. for 40 to 48 hours. The media was removed from the CellBIND plate via plate inversion and gentle shaking and the inverted plate was touched to a paper towel and immediately placed on ice. […] Plates containing cell lysates were sealed and shaken for one hour at 4° C. and then quickly frozen in a −80° C. for approximately 15 to 30 minutes followed by gradually thawing at 4° C. Finally, lysate containing plates were centrifuged @1000×g (2073 rpm) for 10 minutes at 4° C.
The sealed MSD plate was incubated overnight in a cold room with gentle shaking. The MSD plate was then blocked with 150 μL of Blocker “A” per well and incubated overnight at 4° C. with vigorous shaking. The blocked MSD plate was washed 4 times with 150 μL/well TBS-T wash buffer (150 mM NaCl, 50 mM Tris, pH 7.5, 0.02% Tween-20). Cell lysates (75 μL) were transferred to prepared MSD plates and incubated at 4° C. ON with gentle shaking. […] The detection antibody was incubated for 1 hour at room temperature with vigorous shaking after which plates were washed 3 times with 150 μL/well TBS-T wash buffer. Plates were processed for analysis by the addition of 150 μL/well MSD Read 4× Buffer T with surfactant (catalog no. R92TC-2; diluted 1:3 in deionized water) and were read on the SECTOR Imager 6000.

For assay [2], the target named is 6×HIS-tankyrase 1 (1091-1325) (Homo sapiens (Human), UniProt O95271). Kind of assay: biochemical. It counts as biochemical. The note with it: 400 nM NAD, 60 minutes at room temperature, read-out: TNKS1 IP IC50.
Chain of 6×HIS-tankyrase 1 (1091-1325) (O95271 1091-1325): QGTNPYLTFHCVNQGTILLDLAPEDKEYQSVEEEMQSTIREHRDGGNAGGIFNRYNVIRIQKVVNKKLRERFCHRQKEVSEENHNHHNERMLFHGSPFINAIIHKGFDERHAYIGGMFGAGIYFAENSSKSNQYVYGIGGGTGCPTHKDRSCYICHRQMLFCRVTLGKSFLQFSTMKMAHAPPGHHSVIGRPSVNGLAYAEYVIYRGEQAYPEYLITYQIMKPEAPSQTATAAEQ
[3] abbreviates: Homo sapiens, SW480, read-out: SW480-Total β-Catenin IC50 IP.
Setting [4] is: Homo sapiens, SW480 cells, 40 to 48 hours, top concentration 10 μM, read-out: SW480-Total β-Catenin IC50 IP.

`CC1(C)OC(=O)N([C@H]2CC[C@@H](c3cnc(N)c(-c4ncccn4)c3)CC2)[C@H]1c1ccccc1` (racemic) [Example 72, 3-((1s,4s)-4-(6-amino-5-(pyrimidin-2-yl)pyridin-3-yl)cyclohexyl)-5,5-dimethyl-4-phenyloxazolidin-2-one]: in the assay with Axin2 in SW480 cells, the EC50 is 5.81 µM. Moreover, in assay [1] (setting [3]), the IC50 stood at 6.55 µM.
In the same order, the values of `CC1(C)OC(=O)N([C@H]2CC[C@H](c3cnc(N)c(-c4ncccn4)c3)CC2)[C@H]1c1ccccc1` (racemic) [Example 73, 3-((1r,4r)-4-(6-amino-5-(pyrimidin-2-yl)pyridin-3-yl)cyclohexyl)-5,5-dimethyl-4-phenyloxazolidin-2-one] are 0.202 µM and 0.0952 µM.
Turning to `CC1(C)OC(=O)N(c2ccc(C(=O)Nc3cccc4cccnc34)cc2)[C@@H]1c1cccnc1` [Example 10, (R)-4-(5,5-dimethyl-2-oxo-4-(pyridin-3-yl)oxazolidin-3-yl)-N-(quinolin-8-yl)benzamide], the EC50 in the assay on Axin2 in SW480 cells (SW480 cells, 24 hours) is > 25 µM. Further, in assay [2] ([…] enzyme), the concentration for half-maximal inhibition (IC50) came to 4.45 µM.
Regarding `CC1(C)OC(=O)N(c2ccc(-n3c(=O)[nH]c4ccccc43)cc2)[C@H]1c1ccccc1` [Example 19, (S)-5,5-dimethyl-3-(4-(2-oxo-2,3-dihydro-1H-benzo[d]imidazol-1-yl)phenyl)-4-phenyloxazolidin-2-one], the 50% inhibitory concentration (IC50) in assay [2] ([…] enzyme) is 0.863 µM; in assay [1] (setting [4]) it was 8.63 µM.
In the same order, the values of `CC1(C)OC(=O)N(c2ccc(C(=O)Nc3nccc4cccnc34)cc2)[C@H]1c1ccccc1` [Example 20, (S)-4-(5,5-dimethyl-2-oxo-4-phenyloxazolidin-3-yl)-N-(1,7-naphthyridin-8-yl)benzamide] are 1.48 µM and 5.33 µM.
For `CC1(C)OC(=O)N([C@H]2CC[C@H](n3c(=O)[nH]c4cnccc43)CC2)[C@@H]1c1ccccc1` [Example 24, (R)-5,5-dimethyl-3-((1 r,4R)-4-(2-oxo-2,3-dihydro-1H-imidazo[4,5-c]pyridin-1-yl)cyclohexyl)-4-phenyloxazolidin-2-one], the EC50 in the assay on Axin2 in SW480 cells (SW480 cells, 24 hours) stood at 4.64 µM. Further, the 50% inhibitory concentration (IC50) in assay [1] (setting [4]) was 1.48 µM.
Turning to `O=C(Nc1cccc2cccnc12)c1ccc(N2C(=O)OC3(CCCCC3)C2c2ccccc2)cc1` (centres unmarked) [Example 46, (R+S) 4-(2-oxo-4-phenyl-1-oxa-3-azaspiro[4.5]decan-3-yl)-N-(quinolin-8-yl)benzamide], the EC50 in the assay on Axin2 in SW480 cells was > 25 µM. Further, the half-maximal inhibitory concentration (IC50) in assay [2] ([…] enzyme) was 5.17 µM.
With `CC1(C)OC(=O)N(c2ccn3c(Nc4ccnc5cccnc45)nnc3c2)[C@H]1c1ccccc1` [Example 71, (S)-3-(3-((1,5-naphthyridin-4-yl)amino)-[1,2,4]triazolo[4,3-a]pyridin-7-yl)-5,5-dimethyl-4-phenyloxazolidin-2-one], in the assay with Axin2 in SW480 cells (SW480 cells, 24 hours), the EC50 was > 25 µM. Moreover, the IC50 in assay [2] ([…] enzyme) was 0.503 µM.
Consider `CC1(C)OC(=O)N([C@H]2CC[C@H](c3nnc(-c4ccccc4)o3)CC2)[C@H]1c1ccccc1` [Example 85, (S)-5,5-dimethyl-4-phenyl-3-((1r,4S)-4-(5-phenyl-1,3,4-oxadiazol-2-yl)cyclohexyl)oxazolidin-2-one], for which the half-inhibitory concentration (IC50) in assay [2] ([…] enzyme) was 0.0452 µM; in assay [1] (setting [4]) it was 2.41 µM.
On to `CC1(C)OC(=O)N(c2ccc(-c3cnc(N)c(-c4nccc(C(=N)N)n4)c3)cc2)[C@H]1c1ccccc1` [Example 99, (S)-2-(2-amino-5-(4-(5,5-dimethyl-2-oxo-4-phenyloxazolidin-3-yl)phenyl)pyridin-3-yl)pyrimidine-4-carboximidamide], for which the half-inhibitory concentration (IC50) stood at 0.0143 µM in assay [2] (0.25 nM enzyme) and 0.62 µM in assay [1] (setting [3]).
As for `CC1(C)OC(=O)N(c2ccc(-c3cnc(N)c(-c4nccc(C#N)n4)c3)cc2)[C@H]1c1ccccc1` [Example 102, (S)-2-(2-amino-5-(4-(5,5-dimethyl-2-oxo-4-phenyloxazolidin-3-yl)phenyl)pyridin-3-yl)pyrimidine-4-carbonitrile], the IC50 is 0.92 µM in assay [2] ([…] enzyme) and > 10 µM in assay [1] (setting [4]).
In the same order, the values of `CC1(C)OC(=O)N([C@H]2CC[C@H](n3c(=O)[nH]c4c(F)cc(F)cc43)CC2)[C@H]1c1ccccc1` [Example 104, (S)-3-((1r,4S)-4-(4,6-difluoro-2-oxo-2,3-dihydro-1H-benzo[d]imidazol-1-yl)cyclohexyl)-5,5-dimethyl-4-phenyloxazolidin-2-one] are 0.093 µM and > 10 µM.
Turning to `COc1cccc([C@@H]2N(c3ccc(C(=O)Nc4cccc5cccnc45)cc3)C(=O)OC2(C)C)c1` [Example 107, (S)-4-(4-(3-Methoxyphenyl)-5,5-dimethyl-2-oxooxazolidin-3-yl)-N-(quinolin-8-yl)benzamide], the IC50 worked out at 0.0899 µM in assay [2] ([…] enzyme) and 2.36 µM in assay [1] (setting [4]).
Consider `CC1(C)OC(=O)N(c2ccc(C(=O)Nc3cccc4cccnc34)cc2)[C@@H]1c1cccc(F)c1` [Example 109, (R)-4-(4-(3-fluorophenyl)-5,5-dimethyl-2-oxooxazolidin-3-yl)-N-(quinolin-8-yl)benzamide], for which the half-maximal effective concentration (EC50) in the assay with Axin2 in SW480 cells (SW480 cells, 24 hours) was > 25 µM. Also, the IC50 in assay [2] ([…] enzyme) was determined as 5.53 µM.
In the same order, the values of `COc1ccc([C@H]2N(c3ccc(C(=O)Nc4cccc5cccnc45)cc3)C(=O)OC2(C)C)cc1` [Example 112, (R)-4-(4-(4-methoxyphenyl)-5,5-dimethyl-2-oxooxazolidin-3-yl)-N-(quinolin-8-yl)benzamide] are > 25 µM and 2.75 µM.
On to `CC1(C)OC(=O)N(c2ccc(-c3cc(-c4ccccn4)cnc3F)cc2)[C@H]1c1ccccc1` [Example 114, (S)-3-(4-(6′-fluoro-[2,3′-bipyridin]-5′-yl)phenyl)-5,5-dimethyl-4-phenyloxazolidin-2-one], for which the IC50 is 0.447 µM in assay [2] ([…] enzyme) and 1.78 µM in assay [1] (setting [4]).
Turning to `CC1(C)OC(=O)N(c2ccc(C(=O)Nc3cccc4cccnc34)cc2)[C@@H]1c1ccccn1` [Example 122, (R)-4-(5,5-dimethyl-2-oxo-4-(pyridin-2-yl)oxazolidin-3-yl)-N-(quinolin-8-yl)benzamide], the half-inhibitory concentration (IC50) in assay [2] ([…] enzyme) was 1.53 µM; in assay [1] (setting [4]), 8.56 µM.
In the same order, the values of `CC1(C)OC(=O)N(c2ccc(C(=O)Nc3cccc4cccnc34)cc2)[C@H]1c1ccccn1` [Example 123, (S)-4-(5,5-dimethyl-2-oxo-4-(pyridin-2-yl)oxazolidin-3-yl)-N-(quinolin-8-yl)benzamide] are 0.228 µM and 3.44 µM.
Consider `CC1(C)OC(=O)N(c2ccc(C(=O)Nc3cccc4cccnc34)cc2)[C@@H]1c1ccncc1` [Example 125, (R)-4-(5,5-dimethyl-2-oxo-4-(pyridin-4-yl)oxazolidin-3-yl)-N-(quinolin-8-yl)benzamide], for which the EC50 in the assay on Axin2 in SW480 cells (SW480 cells, 24 hours) was > 25 µM. Moreover, the concentration for half-maximal inhibition (IC50) in assay [2] ([…] enzyme) was 7.91 µM.
As for `Cc1cc(N2C(=O)OC(C)(C)[C@@H]2c2ccccc2)ccc1C(=O)Nc1ccnc2cccnc12` [Example 128, (S)-4-(5,5-dimethyl-2-oxo-4-phenyloxazolidin-3-yl)-2-methyl-N-(1,5-naphthyridin-4-yl)benzamide], the half-inhibitory concentration (IC50) came out at 0.693 µM in assay [2] ([…] enzyme) and 4.35 µM in assay [1] (setting [4]).
Regarding `CC1(C)OC(=O)N(C2CCN(c3cnc4ccn(-c5ncccn5)c4c3)CC2)[C@H]1c1ccccc1` [Example 140, (S)-5,5-dimethyl-4-phenyl-3-(1-(1-(pyrimidin-2-yl)-1H-pyrrolo[3,2-b]pyridin-6-yl)piperidin-4-yl)oxazolidin-2-one], the IC50 in assay [2] ([…] enzyme) was 0.0243 µM; in assay [1] (setting [4]) it was 1.83 µM.
On to “(S)-3-(4-(6-amino-5-(5-chloropyridazin-3-yl)pyridin-3-yl)phenyl)-5,5-dimethyl-4-phenyloxazolidin-2-one [Example 100]”, for which the IC50 in assay [2] ([…] enzyme) was 0.22 µM; in assay [1] (SW480 cells, 40 to 48 hours, top concentration 10 μM, read-out: SW480-Total β-Catenin IC50 IP), 3.38 µM.

Usually EC50 stands for the concentration at which the effect is half-maximal. In general, IC50 refers to the point on the concentration scale where inhibition reaches its midpoint.
